Results on 31 compounds are retold here after US20160022636A1, “PHYSIOLOGICAL LIGANDS FOR GPR139” (JANSSEN PHARMACEUTICA NV, priority 2013, published 2016).

The first test deals with T1, GPR139 (Homo sapiens, UniProt Q6DWJ6).
T1 sequence (Q6DWJ6 1-353): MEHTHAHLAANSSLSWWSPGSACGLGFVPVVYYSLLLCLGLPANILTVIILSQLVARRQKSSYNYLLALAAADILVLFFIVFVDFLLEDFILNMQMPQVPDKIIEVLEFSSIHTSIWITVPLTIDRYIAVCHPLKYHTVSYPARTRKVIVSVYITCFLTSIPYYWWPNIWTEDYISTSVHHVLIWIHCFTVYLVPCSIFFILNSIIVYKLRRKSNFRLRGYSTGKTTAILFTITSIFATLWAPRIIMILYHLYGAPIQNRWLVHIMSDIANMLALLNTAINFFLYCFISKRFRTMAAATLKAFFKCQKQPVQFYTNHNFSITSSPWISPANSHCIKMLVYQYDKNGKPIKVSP
The test is described as follows: calcium mobilization assay (FLIPR), GPR139 transiently expressed in HEK293 cells. Set-up: expressed in transfected cells; host or cells: HEK293. The test is classed as cell-based. The following applies: HEK293, read-out: % L-phenylalanine at 300 μM (average). From the text: For these experiments human GPR139 was transiently expressed in HEK293 cells and calcium mobilization was stimulated using L-Trp, L-Phe or their derivatives.
For orientation: Calcium flux is commonly read through the fluorescence of an indicator in the cells.
`N[C@@H](Cc1ccc([N+](=O)[O-])cc1[N+](=O)[O-])C(=O)O` [2,4-Dinitro-L-phenylalanine]: the activation at 300 µM stood at 95%.

The same test, now with this note: HEK293; calcium mobilization at 300 μM as percentage of that observed for L-phenylalanine; read-out: % L-phenylalanine at 300 μM (average).
Consider `N[C@H](Cc1c(F)c(F)c(F)c(F)c1F)C(=O)O` [2,3,4,5,6-Pentafluoro-D-phenylalanine], for which the activation at 300 µM worked out at 145%.

In the case of `N[C@H](Cc1ccc(Cl)cc1Cl)C(=O)O` [2,4-Dichloro-D-phenylalanine], the activation at 300 µM worked out at 135%.

Regarding `N[C@@H](Cc1ccc(Cl)cc1Cl)C(=O)O` [2,4-Dichloro-L-phenylalanine], the activation at 300 µM came to 122%.

As to `Cc1ccc(C[C@@H](N)C(=O)O)c(C)c1` [2,4-Dimethyl-D-phenylalanine], the activation at 300 µM was determined as 101%.

As to `Cc1ccc(C[C@H](N)C(=O)O)c(C)c1` [2,4-Dimethyl-L-phenylalanine], the activation at 300 µM was determined as 113%.

`N[C@H](Cc1ccccc1Br)C(=O)O` [2-Bromo-D-phenylalanine]: the activation at 300 µM worked out at 135%.

On to `N[C@@H](Cc1ccccc1Br)C(=O)O` [2-Bromo-L-phenylalanine], for which the activation at 300 µM was determined as 168%.

Consider `N[C@@H](Cc1ccccc1F)C(=O)O` [2-Fluoro-L-phenylalanine], for which the activation at 300 µM is 119%.

With `Cc1ccccc1C[C@@H](N)C(=O)O` [2-Methyl-D-phenylalanine], the activation at 300 µM was found to be 109%.

Take `Cc1ccccc1C[C@H](N)C(=O)O` [2-Methyl-L-phenylalanine]: the activation at 300 µM came to 134%.

As to `N[C@@H](Cc1ccccc1[N+](=O)[O-])C(=O)O` [2-Nitro-L-phenylalanine], the activation at 300 µM was found to be 150%.

As to `N[C@@H](Cc1ccccc1C(F)(F)F)C(=O)O` [2-Trifluoromethyl-L-phenylalanine], the activation at 300 µM came out at 110%.

For the compound `N[C@H](C(=O)O)C(c1ccccc1)c1ccccc1` [3,3-Diphenyl-L-alanine], the activation at 300 µM worked out at 117%.

For the compound `N[C@H](Cc1ccc(Cl)c(Cl)c1)C(=O)O` [3,4-Dichloro-D-phenylalanine], the activation at 300 µM stood at 149%.

`N[C@@H](Cc1ccc(Cl)c(Cl)c1)C(=O)O` [3,4-Dichloro-L-phenylalanine]: the activation at 300 µM was found to be 149%.

With `N[C@H](Cc1ccc(F)c(F)c1)C(=O)O` [3,4-Difluoro-D-phenylalanine], the activation at 300 µM came out at 121%.

Turning to `N[C@H](Cc1cc(F)cc(F)c1)C(=O)O` [3,5-Difluoro-D-phenylalanine], the activation at 300 µM is 102%.

For the compound `N[C@H](Cc1cccc(Br)c1)C(=O)O` [3-Bromo-D-phenylalanine], the activation at 300 µM stood at 172%.

In the case of `N[C@@H](Cc1cccc(Br)c1)C(=O)O` [3-Bromo-L-phenylalanine], the activation at 300 µM came out at 167%.

Regarding `N[C@H](Cc1cccc(Cl)c1)C(=O)O` [3-Chloro-D-phenylalanine], the activation at 300 µM worked out at 147%.

For `N[C@@H](Cc1cccc(Cl)c1)C(=O)O` [3-Chloro-L-phenylalanine], the activation at 300 µM was found to be 145%.

Take `N#Cc1cccc(C[C@@H](N)C(=O)O)c1` [3-Cyano-D-phenylalanine]: the activation at 300 µM stood at 93%.

For `N#Cc1cccc(C[C@H](N)C(=O)O)c1` [3-Cyano-L-phenylalanine], the activation at 300 µM came out at 115%.

On to `N[C@H](Cc1cccc(F)c1)C(=O)O` [3-Fluoro-D-phenylalanine], for which the activation at 300 µM turned out to be 94%.

As for `N[C@@H](Cc1cccc(F)c1)C(=O)O` [3-Fluoro-L-phenylalanine], the activation at 300 µM was 114%.

`Cc1cccc(C[C@@H](N)C(=O)O)c1` [3-Methyl-D-phenylalanine]: the activation at 300 µM is 150%.

For `Cc1cccc(C[C@H](N)C(=O)O)c1` [3-Methyl-L-phenylalanine], the activation at 300 µM came to 147%.

On to `N[C@H](Cc1cccc([N+](=O)[O-])c1)C(=O)O` [3-Nitro-D-Phenylalanine], for which the activation at 300 µM came out at 164%.

The same test, now with this note: calcium mobilization at 300 μM as percentage of that observed for L-phenylalanine.
`N[C@H](Cc1ccc(Br)s1)C(=O)O` [2-(5-bromothienyl)-D-alanine]: the “% L-phenylalanine at 300 μM (average)” value is given as 154%.

Consider `N[C@@H](Cc1ccc(Br)s1)C(=O)O` [2-(5-bromothienyl)-L-alanine], for which the “% L-phenylalanine at 300 μM (average)” value was determined as 151%.
